This assay can be described thus: Inhibition of Mycobacterium tuberculosis H37Rv full-length PTPB expressed in Escherichia coli […] using 6,8-difluoromethylumbelliferyl phosphate as substrate assessed as inhibition of substrate hydrolysis.

Usually IC50 stands for the concentration that inhibits the measured activity by half. On to `CC(=O)c1cc(C)c(O)c(Cc2c(O)cc(-c3ccc(O)c(O)c3)oc2=O)c1O`, for which the IC50 came out at 0.16 µM.

Turning to `CC(=O)c1cc(C)c(O)c(CC2=C(C)C(=O)C(O)=C(C)C2=O)c1O`, the IC50 was determined as 1.37 µM.

Turning to SODIUM ORTHOVANAD, the IC50 worked out at 0.082 µM.

The record behind these values is ChEMBL document CHEMBL3232773, “Peniphenones A-D from the mangrove fungus Penicillium dipodomyicola HN4-3A as inhibitors of Mycobacterium tuberculosis phosphatase MptpB” (J Nat Prod, 2014).
